The source of these data is article PMC10295794, “Pharmacokinetic Analysis of Zonarol, a Marine Algal Hydroquinone, in Mice Using HPLC with Fluorescence Detection” (Antibiotics, 2023).

The conditions of series [1]: cited from earlier work.
The conditions of series [2]: cited from earlier work. The source holds these as a separate data set.
Series [3] in a line: Plasma concentration of zonarol after oral or intravenous administration in mice (HPLC-FI, non-compartmental analysis). The following applies: for time within which plasma concentration remained over the LOQ: LOQ 11.1 ng/mL. In kind it is in vivo. The protocol:
(§1) HPLC analysis was carried out on a Shimadzu-20A series instrument (Shimadzu, Japan) connected to a fluorescence detector (RF-10A xl, Shimadzu, Japan). The signals from the fluorescence system were transmitted to LC Solution software for the purposes of analyzing and calculating the peak areas. Chromatographic separation was carried out on an RPAQUEOUS-AR-5 (4.6 × 250 mm) column. The HPLC was operated with a gradient mobile phase system consisting of water containing 0.1% formic acid (phase A) and methanol (phase B) at a flow rate of 1 mL/min. The pump was programmed as follows: phase B was maintained at 40% for the first 5 min, increased from 40% to 80% within the next 25 min, maintained at 80% for the next 10 min, increased to 100% for 10 min, and then decreased back to 40% for 10 min (total gradient time: 60 min). A 50 μL sample was injected into the system with the auto-sampler and conditioned at 4 °C, and the column temperature was maintained at 30 °C.
Male ddY mice (8 weeks old, 40 ± 2 g) were purchased from SLC Inc. (Shizuoka, Japan) and were acclimated to laboratory conditions for 1 week before experiment. The mice were housed in an air-conditioned room at 23 ± 2 °C with 12 h/12 h light–dark illumination cycles at a constant humidity (55 ± 10%) with free access to food (MR stock, Nosan, Japan) and tap water. Exsanguination and autopsy were performed under anesthesia with an overdose of isoflurane (Mylan EPD Ltd., Canonsburg, PA, USA). All procedures were reviewed and approved (R3-9 and R4-2) in terms of animal welfare by the Animal Ethics Committee of Tokyo University of Marine Science and Technology.
The mice were fasted for 12 h before the oral administration of zonarol. Blood samples were collected from the mouse tails at 15, 30, 45, 60, 90, 120, 240, and 480 min after the oral administration of 100 mg/kg of zonarol (n = 5).
The mice were not fasted before the intravenous administration of zonarol but were fasted after the test started. Blood samples were collected from the mouse tails, via the caudal veins, at 5, 15, 30, 45, 60, 90, 120, and 240 min after the intravenous administration of 10 mg/kg of zonarol (n = 6).
Blood samples were immediately centrifuged at 9000 rpm for 5 min. After centrifugation, a 20 μL aliquot of plasma was mixed with 80 μL of MeCN for deproteinization. Then, the mixture was centrifuged at 9000 rpm for 5 min, and the supernatant was used for HPLC analysis.
Data were expressed as the mean ± standard deviation (SD) for the in vitro and the animal experiments. The number of the data is described for each experiment. The pharmacokinetic parameters were calculated with Phoenix Winnonlin software (version 8.1) while using a non-compartmental model. The abnormal data were eliminated after being analyzed via a Box-type drawing with SPSS software (SPSS Inc., Chicago, IL, USA).

Series [4] in a line: Tissue distribution of zonarol after intravenous administration in mice. In kind it is in vivo. The following applies: for concentration at 30 min / concentration at 15 min: mouse, iv, 10 mg/kg; for concentration at 30 min: brain; for concentration at 15 min: 15 min after administration. How it is done: as §1
Blank tissue homogenates were prepared by collecting the liver, kidney, and brain from normal mice after anesthetization. Blank tissue homogenates were used to determine the specificity of zonarol. In the experimental mice, the livers, kidneys, and brains were collected at 15, 30, 60, 120 min after the intravenous administration, via the caudal veins, of 10 mg/kg of zonarol (n = 7). The tissue with added distilled water (mass/volume = 1:4) was homogenized.
Next, a 50 μL of tissue homogenate was mixed with 200 μL of MeCN for deproteinization. Then, the mixture was centrifuged at 9000 rpm for 5 min, and the supernatant was used for HPLC analysis.

The nature of series [5]: Stability of zonarol with mice plasma during HPLC analysis. Format: in vitro ADME. The protocol:
as §1
The stability of low, medium, and high concentrations of 20, 80, and 320 ng/mL of zonarol mixed with the plasma of mice was performed under different conditions, including storage at room temperature for 4 h, storage at 37 °C for 4 h, and storage at 4 °C for 12 h and subjection to three freeze–thaw cycles. Next, 20 μL aliquots of low, medium, and high concentration zonarol solutions ([…]) were added to polypropylene tubes with 80 μL of blank plasma. Then, 900 μL of MeCN was added to the mixture, after being incubated under the different conditions described above, for deproteinization. The final nominal concentrations of zonarol were 20, 80, and 320 ng/mL. After deproteinization, the mixtures were centrifuged at […] for 5 min, and the supernatants were used for HPLC analysis. The accuracy of the assay was determined by comparing the nominal concentrations with the corresponding calculated concentrations via linear regression. Every concentration of zonarol was measured three times.

The subject of series [6] is carrageenan-induced paw edema. Nature of the series: Carrageenan-induced paw edema in mice after oral bolus zonarol. Format: in vivo. The following applies: estimated from current p.o. 100 mg/kg plasma data and earlier 62.5 mg/kg edema result (ref 16).
For series [7], the system named is carrageenan-induced paw edema. More on the design: method as in PMID 25409433. Particulars: mice, oral bolus 62.5 mg/kg at −0.5 h; edema at 2 and 4 h after carrageenan; cited from earlier work.
Series [8] deals with DSS-induced ulcerative colitis. More on the design: method as in PMID 25409433. The following applies: mice, oral 10 mg/kg/day for 2 weeks; cited from earlier work.
The subject of a further series is diet-induced NAFLD. Also noted: method as in PMID 34684455. The following applies: mice, oral 10 mg/kg/day for 2 weeks; cited from earlier work.
Where [9] appears, read: male, ddY, mouse, plasma, po, p.o. 100 mg/kg, n = 5, mean ± SD.
Where [10] appears, read: storage at 4 °C for 12 h, prepared 20 ng/mL.
Where [11] appears, read: storage at 4 °C for 12 h, prepared 80 ng/mL.
Setting [12] is: storage at 4 °C for 12 h, prepared 320 ng/mL.
[13] abbreviates: storage at 37 °C for 4 h, prepared 20 ng/mL.
Setting [14] is: storage at 37 °C for 4 h, prepared 80 ng/mL.
Where [15] appears, read: storage at 37 °C for 4 h, prepared 320 ng/mL.
[16] abbreviates: storage at RT for 4 h, prepared 20 ng/mL.
Setting [17] is: storage at RT for 4 h, prepared 80 ng/mL.
Where [18] appears, read: storage at RT for 4 h, prepared 320 ng/mL.
Where [19] appears, read: three cycles of freeze-thaw, prepared 20 ng/mL.
[20] abbreviates: three cycles of freeze-thaw, prepared 80 ng/mL.
Setting [21] is: three cycles of freeze-thaw, prepared 320 ng/mL.

Like-named read-outs stand apart in the source and are kept apart here.

Turning to `O=c1c(O)c(-c2ccc(O)c(O)c2)oc2cc(O)cc(O)c12` [quercetin], the absolute bioavailability in series [1] (variability depended on gastric contents during ingestion) is listed as 16%. In series [2] (0.1%-quercetin-containing diet for 11 weeks), the “accumulation in the brain” value is recorded as “did not induce the accumulation”.

For the compound `C=C1CC[C@@H]2C(C)(C)CCC[C@@]2(C)[C@@H]1Cc1cc(O)ccc1O` [zonarol], the “time within which plasma concentration remained over the LOQ” value in series [3] (i.v. 10 mg/kg) was no more than 240 min; in series [3] (p.o. 100 mg/kg), no more than 480 min. Further, the AUC(0-t) was 608 ng·h/mL in series [3] (male, ddY, mouse, plasma, iv, i.v. 10 mg/kg, 0 to 240 min, n = 6, mean ± SD, read-out: AUC (AUC0-240) (converted)) and 1520 ng·h/mL in [3] (male, ddY, mouse, plasma, po, p.o. 100 mg/kg, 0 to 480 min, n = 5, mean ± SD, read-out: AUC (AUC0-480) (converted)). This compound gave a concentration at 5 min in series [3] (male, ddY, mouse, plasma, iv, i.v. 10 mg/kg, 5 min) of 878 ± 371 ng/mL. In addition, in series [3] (male, ddY, mouse, plasma, oral, (p.o. AUC/p.o. dose)/(i.v. AUC/i.v. dose) × 100, p.o. 100 mg/kg, i.v. 10 mg/kg), the bioavailability came to 25%. The compound also gave a Cmax in series [3] (setting [9]) of 723 ± 75.9 ng/mL. Besides, in series [3] (setting [9]), the time of peak concentration (Tmax) is 1.25 h. Besides, in series [4] (i.v. 10 mg/kg bolus, data not shown), the “tissue/body weights (g/g) and visual observation of each tissue vs. mice without bolus treatment” value is “did not reflect any marked differences”. In addition, the concentration at 30 min in [4] (bolus i.v. 10 mg/kg BW, 30 min, read-out: maximal distribution of zonarol in the brain) is 2520 ± 1330 ng/g; in series [4] (i.v. 10 mg/kg, 30 min after administration, n = 7, mean ± SD, read-out: zonarol content in brain (peak)) it was 2530 ± 1330 ng/g. For the same compound, the concentration at 15 min in series [4] (kidney, i.v. 10 mg/kg, n = 7, mean ± SD, read-out: zonarol content in kidney (highest)) came out at 1910 ± 1800 ng/g; in series [4] (liver, i.v. 10 mg/kg, n = 7, mean ± SD, read-out: zonarol content in liver (highest)) it was 1320 ± 1040 ng/g. For the same compound, the “accuracy of each group (plasma stability)” value in series [5] (all storage conditions and concentrations of Table 2) is on record as 90.8–112.9%. The “Accuracy (detected/prepared × 100)” value in series [5] (setting [10]) was 104.9%; in series [5] (setting [11]), 92.3%; in series [5] (setting [12]), 104.4%; in [5] (setting [13]), 105.8%; in [5] (setting [14]), 90.8%; in series [5] (setting [15]) it was 95.2%. Besides, the “Accuracy (detected/prepared × 100)” value in series [5] (setting [16]) came out at 112.9%; in series [5] (setting [17]), 91.2%; in series [5] (setting [18]), 97.2%; in [5] (setting [19]) it was 107.9%; in series [5] (setting [20]), 94.4%; in [5] (setting [21]), 101.7%. The “Zonarol detected in plasma” value in series [5] (setting [10]) is listed as 21.0 ± 1.33 ng/mL; in series [5] (setting [11]) it was 73.8 ± 1.98 ng/mL; in [5] (setting [12]), 334.2 ± 10.70 ng/mL; in [5] (setting [13]), 21.2 ± 0.33 ng/mL; in [5] (setting [14]) it was 72.6 ± 0.53 ng/mL; in series [5] (setting [15]), 304.6 ± 6.57 ng/mL. For the same compound, the “Zonarol detected in plasma” value in [5] (setting [16]) was 22.6 ± 1.24 ng/mL; in [5] (setting [17]), 73.0 ± 1.72 ng/mL; in series [5] (setting [18]) it was 311.1 ± 2.76 ng/mL; in series [5] (setting [19]) it was 21.6 ± 1.44 ng/mL; in [5] (setting [20]), 75.5 ± 2.38 ng/mL; in series [5] (setting [21]), 325.5 ± 4.56 ng/mL. Further, the “time zonarol remained stable in plasma” value in series [5] (stored at 4 °C) is “at least 12 h”. Further, the “change of zonarol content in plasma” value in series [5] (stored at RT or 37 °C for 4 h) is “did not change”. The “effect of three freeze–thaw cycles on quantification in plasma” value in [5] (three freeze–thaw cycles) was “no effect”. In series [6], the “plasma zonarol required to induce suppressive effects on edema formations” value is given as “approximately 300 ng/mL”. Besides, in series [7], the “effect on carrageenan-induced paw edema” value is on record as “significantly suppressed”. Moreover, the “effect on DSS-induced ulcerative colitis” value in series [8] was “suppressed”. Further, the “effect on diet-induced NAFLD” value in the series with diet-induced NAFLD is reported as “prevented”.

With fucoxanthin, the bioavailability in [1] is listed as 0.06%. Besides, the “passage through the BBB” value in series [2] (due to hydrophobic properties) was “pass through the BBB”.

By bioavailability is commonly meant dose-corrected exposure relative to a reference, in per cent. The term Cmax denotes the maximum level reached in the sampled fluid or tissue. The Tmax is the time from dosing to the highest level.
